Laboratory results taken from patent publication US8097404B2, “Composition and method for cell permeabilization comprising N-octyl-β-D-glucopyranoside, sodium polyphosphates, rubidium chloride and/or lithium chloride for detecting living cells on a membrane” (Millipore Corporation, priority 2008, dated 2012).

Test system: S. aureus (Gram-positive bacterium) ATCC 6538
Assay: Fluorescence detection of microcolonies on membrane after permeabilization and 5/6-CFDA labeling
Format: cell-based
Conditions: agent used alone
Method: The tested strains of E. coli (Gram-negative bacterium) ATCC 8739 and of S. aureus (Gram-positive bacterium) ATCC 6538 or B. subtilis (Gram-positive bacterium) ATCC 6633 were preserved in cryotubes (Dutscher, ref. 028049) frozen at −80° C. prepared from freeze-dried strains obtained from collections.
For all the tests, the bacteria strains are diluted in tubes of peptone water (Biomérieux, ref. 42111). A cascade dilution is performed by adding 1 ml of the cryotube of the strain used to 9 ml of the tube of peptone water until the desired dilution is obtained. The concentration was adjusted in order to obtain on average 30 bacteria per sample. This concentration was verified on a Petri dish by a conventional count test on agar medium. […]
A universal fluorogenic marker, namely 5/6-carboxyfluorescein diacetate (CFDA) (Sigma 21879-100MG) diluted in DMSO, is added to the permeabilization compositions in order to reach a final concentration of 100 μg/ml. […] The membrane is then removed from the labeling solution and placed in an illuminator equipped with a camera in order to measure the fluorescence emitted between 520 and 530 nm.
The fluorescence intensity results summarized in Tables 1 to 3 below correspond to the light energy (luminescence) captured and recorded to the nearest pixel by the CCD camera using the Sherlock image analyzing software (Insosys Inc.). […]

`CCCCCCCCO[C@@H]1O[C@H](CO)[C@@H](O)[C@H](O)[C@H]1O` [N-Octyl-β-D-glucopyranoside] was tested, and the “Permeabilization of Gram-positive bacteria, in words” value was “unsuitable”.
